A short description of data set [1]: Intrinsic clearance in rat hepatocytes assessed per million cells. As to conditions: read-out: CLH. It is filed as ADME, cell-based, Hepatocyte.
Data set [2] deals with T1, Prostaglandin D2 receptor 2 (Homo sapiens, UniProt Q9Y5Y4).
T1 sequence (Q9Y5Y4 whole entry): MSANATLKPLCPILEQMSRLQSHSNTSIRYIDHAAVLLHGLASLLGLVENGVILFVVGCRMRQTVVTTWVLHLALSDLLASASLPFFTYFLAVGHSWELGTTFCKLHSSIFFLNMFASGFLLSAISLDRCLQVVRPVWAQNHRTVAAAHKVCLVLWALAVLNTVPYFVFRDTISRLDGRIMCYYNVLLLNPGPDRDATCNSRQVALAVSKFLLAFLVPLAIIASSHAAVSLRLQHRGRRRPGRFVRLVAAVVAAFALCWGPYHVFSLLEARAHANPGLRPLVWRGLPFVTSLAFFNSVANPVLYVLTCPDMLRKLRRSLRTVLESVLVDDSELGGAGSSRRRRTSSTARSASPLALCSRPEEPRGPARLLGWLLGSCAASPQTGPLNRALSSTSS
The data set can be described thus: biochemical.
Description: Displacement of [3H]PGD2 from human CRTh2 expressed in HEK cell membranes after 60 mins by scintillation counting method

The nature of data set [3]: AUC (0 to 6 hrs) in rat at 0.5 mg/kg, iv. It is filed as ADME, organism-based. As to conditions: in vivo. More on the design: time < 6 hr, dose 0.5 mg/kg, route intravenous.
The target of data set [4] is T1, Prostaglandin D2 receptor 2.
Description: Antagonist activity at human CRTh2 expressed in CHOK1 cells assessed as inhibition of PGD2-induced beta-arrestin recruitment incubated for 30 mins followed by PGD2 stimulation measured after 60 mins by PathHunter based chemiluminescence assay
Data set [5] shares this target. The source holds these as a separate data set.

On to `O=C(O)CCC(=O)N(C1CC1)[C@H]1c2ccccc2N(C(=O)c2ccc(OC(F)(F)F)cc2)[C@H]2CC[C@H]21`, for which the hepatocyte CLint in data set [1] was 13 µL/min/1e6 cells. Consider `CCc1ccc2c(c1)[C@H](N(C(=O)CCC(=O)O)C1CC1)[C@@H]1CCC[C@@H]1N2C(=O)c1ccc(OC(F)(F)F)cc1`, for which the Ki in data set [2] was found to be 31 nM. Molecule `O=C(O)CCC(=O)N(C1CC1)[C@H]1c2ccccc2N(C(=O)OCc2ccc(F)cc2)[C@H]2CCC[C@H]21` showed a Ki in data set [2] of 12 nM. Further, the AUC(0-t) at 6 h in data set [3] was determined as 0.27 µM·h. Take `CCN(C(=O)CCC(=O)O)[C@H]1c2ccccc2N(C(=O)c2ccc(OC(F)(F)F)cc2)[C@H]2CCCC12` (single isomer, unassigned): the affinity in data set [2], expressed as Ki, was 12 nM. For `O=C(O)CCC(=O)N(C1CC1)[C@H]1c2ccccc2N(C(=O)c2ccc(OC(F)(F)F)cc2)[C@H]2CCCC21` (single isomer, unassigned), affinity in data set [2] was put at a Ki of 7 nM. The molecule further came in with an AUC(0-t) at 6 h in data set [3] of 0.62 µM·h. Take `O=C(O)CCC(=O)N(C1CC1)[C@H]1c2cc(C3CC3)ccc2N(C(=O)c2ccc(OC(F)(F)F)cc2)[C@H]2CCC[C@H]21`: the inhibitory constant (Ki) in data set [2] is 43 nM. The same measure, in the same setting: to `O=C(O)CCC(=O)N(C1CC1)[C@H]1c2cc(-c3cncnc3)ccc2N(C(=O)c2ccc(OC(F)(F)F)cc2)[C@H]2CCC[C@H]21` belongs 300 nM; to `CC(CC(=O)N(C1CC1)[C@H]1c2ccccc2N(C(=O)OCc2ccccc2)[C@H]2CCC[C@H]21)C(=O)O` (stereo not given in full), 510 nM. Regarding `O=C(O)CCC(=O)N(C1CC1)[C@H]1c2ccccc2N(C(=O)c2cccc(F)c2)[C@H]2CC[C@H]21`, the Ki in data set [2] was found to be 8.1 nM. Moreover, the hepatocyte CLint in data set [1] was 16 µL/min/1e6 cells. The IC50 in data set [4] stood at 9.3 nM. Moreover, in data set [3], the AUC(0-t) at 6 h was 0.3 µM·h. Take `CC(C)N(C(=O)CCC(=O)O)[C@H]1c2ccccc2N(C(=O)c2ccc(OC(F)(F)F)cc2)[C@H]2CCCC21` (single isomer, unassigned): the inhibition constant Ki in data set [2] was determined as 50 nM. As for `O=C(O)CCC(=O)N(C1CC1)[C@H]1c2ccc(Cl)cc2N(C(=O)c2ccc(OC(F)(F)F)cc2)[C@H]2CCC[C@H]21`, the IC50 in data set [5] was found to be 110 nM; in data set [4], 59 nM. Besides, the Ki in data set [2] worked out at 2.3 nM. In turn, `O=C(O)CCC(=O)N(C1CC1)[C@H]1c2ccc(F)cc2N(C(=O)c2ccc(OC(F)(F)F)cc2)[C@H]2CCC[C@H]21` registered an area under the curve AUC(0-t) at 6 h in data set [3] of 0.043 µM·h. Take `O=C(O)CCC(=O)N(C1CC1)[C@H]1c2cc(-c3ccc(F)cc3)ccc2N(C(=O)c2ccc(OC(F)(F)F)cc2)[C@H]2CCC[C@H]21`: the Ki in data set [2] came to 110 nM.

For the molecule `O=C(O)COC(=O)N(C1CC1)[C@H]1c2ccccc2N(C(=O)c2ccc(OC(F)(F)F)cc2)[C@H]2CC[C@H]21`, the 50% inhibitory concentration (IC50) worked out at 0.9 nM in data set [5] and 1.4 nM in data set [4]. For the same molecule, the Ki in data set [2] came to 2.5 nM. In data set [1], the hepatocyte CLint was 18 µL/min/1e6 cells. In turn, `O=C(O)CCC(=O)N(C1CC1)C1c2ccccc2N(C(=O)OCc2ccccc2)C2CCCCC21` (racemic) came in with an IC50 in data set [5] of 175 nM. In data set [2], this molecule registered a Ki of 32 nM. Consider `O=C(O)CCC(=O)N(C1CC1)[C@H]1c2ccccc2N(c2nnc(-c3ccccc3)o2)[C@H]2CCC[C@H]21`, for which, in data set [2], the affinity corresponds to a Ki of 28 nM. Same read-out and setting: to `O=C(O)CCC(=O)N(C1CCC1)[C@H]1c2ccccc2N(C(=O)c2ccc(OC(F)(F)F)cc2)[C@H]2CCCC21` (single isomer, unassigned) belongs 8.6 nM. In data set [3], `C[C@@H](OC(=O)N1c2ccccc2[C@H](N(C(=O)CCC(=O)O)C2CC2)[C@@H]2CCC[C@@H]21)c1ccc(F)cc1` displayed an AUC(0-t) at 6 h of 0.63 µM·h. Take `CC1(N(C(=O)CCC(=O)O)[C@H]2c3ccccc3N(C(=O)c3ccc(OC(F)(F)F)cc3)[C@H]3CCCC32)CC1` (single isomer, unassigned): the affinity in data set [2], expressed as Ki, was 64 nM. In data set [3], `C[C@H](OC(=O)N1c2ccccc2[C@H](N(C(=O)CCC(=O)O)C2CC2)[C@@H]2CCC[C@@H]21)c1ccc(F)cc1` returned an AUC(0-t) at 6 h of 0.32 µM·h. For the molecule `O=C(O)COC(=O)N(C1CC1)[C@H]1c2ccccc2N(C(=O)c2cccc(F)c2)[C@H]2CC[C@H]21`, the IC50 came out at 0.8 nM in data set [5] and 1.1 nM in data set [4]. The Ki in data set [2] is 4.1 nM. The hepatocyte CLint in data set [1] was 20 µL/min/1e6 cells.

Consider `CCN(C(C)=O)[C@H]1c2ccccc2N(C(=O)c2ccccc2)[C@H]2CCC[C@@H]12`, for which, in data set [5], the IC50 was determined as 1840 nM. The inhibition constant (Ki) in data set [2] turned out to be 26 nM. Regarding `CC(C)(CC(=O)N(C1CC1)[C@H]1c2ccccc2N(C(=O)OCc2ccccc2)[C@H]2CCC[C@H]21)C(=O)O`, the Ki in data set [2] came out at 7800 nM. In data set [2], `C[C@H](CC(=O)N(C1CC1)[C@H]1c2ccccc2N(C(=O)OCc2ccccc2)[C@H]2CCC[C@H]21)C(=O)O` yielded a Ki of 82 nM.

Molecule `O=C(O)CCC(=O)N(CCC(F)(F)F)[C@H]1c2ccccc2N(C(=O)c2ccc(OC(F)(F)F)cc2)[C@H]2CCCC12` (single isomer, unassigned) yielded a Ki in data set [2] of 35 nM. Consider `CN(C(=O)CCC(=O)O)[C@H]1c2ccccc2N(C(=O)c2ccc(OC(F)(F)F)cc2)[C@H]2CCCC12` (single isomer, unassigned), for which the Ki in data set [2] came to 16 nM. Same read-out and setting: as for `O=C(O)CCC(=O)N(CC1CCC1)[C@H]1c2ccccc2N(C(=O)c2ccc(OC(F)(F)F)cc2)[C@H]2CCCC12` (single isomer, unassigned), the figure is 9 nM.

In data set [5], `O=C(O)CCC(=O)N(C1CC1)C1c2ccccc2N(C(=O)OCc2ccccc2)C2CCC21` (racemic) yielded an IC50 of 210 nM. Moreover, the affinity in data set [2] corresponds to a Ki of 25 nM. For the molecule `O=C(O)COC(=O)N(C1CC1)[C@H]1c2ccccc2N(C(=O)c2ccc(F)cc2)[C@H]2CC[C@H]21`, the IC50 in data set [5] turned out to be 2 nM; in data set [4] it was 1.4 nM. In data set [2], this molecule yielded a Ki of 3.5 nM. Also, the hepatocyte CLint in data set [1] was determined as 13 µL/min/1e6 cells. Regarding `O=C(O)CCC(=O)N(C1CC1)[C@H]1c2ccccc2N(CC(=O)Nc2ccc(F)cc2)[C@H]2CCC[C@H]21`, the Ki in data set [2] stood at 660 nM. Take `O=C(O)CCC(=O)N(C1CC1)C1c2ccccc2N(C(=O)c2ccccc2)C2CCCC21` (racemic): it took 41 nM to reach half-maximal inhibition in data set [5] (IC50). This molecule also yielded a Ki in data set [2] of 10 nM. As for `O=C(O)CCC(=O)N(C1CC1)[C@H]1c2ccccc2N(C(=O)Nc2ccccc2)[C@H]2CCC[C@H]21`, the affinity in data set [2] corresponds to a Ki of 56 nM.

In turn, `O=C(c1ccc(OC(F)(F)F)cc1)N1c2ccccc2[C@H](N(C(=O)CCc2nn[nH]n2)C2CC2)[C@@H]2CCC[C@@H]21` had a Ki in data set [2] of 98 nM. The molecule `O=C(O)CCC(=O)N(C1CC1)[C@H]1c2cc(C(F)F)ccc2N(C(=O)c2ccc(OC(F)(F)F)cc2)[C@H]2CCC[C@H]21` registered a Ki in data set [2] of 14 nM. For `O=C(O)CCC(=O)N(C1CC1)[C@H]1c2cc(F)c(Cl)cc2N(C(=O)c2ccc(OC(F)(F)F)cc2)[C@H]2CCC[C@H]21`, the IC50 in data set [5] was found to be 18 nM; in data set [4], 12 nM. This molecule came in with a Ki in data set [2] of 3.4 nM. Moreover, in data set [3], the AUC(0-t) at 6 h turned out to be 1.05 µM·h. The molecule `O=C(O)COC(=O)N(C1CC1)C1c2ccccc2N(C(=O)c2ccccc2)C2CCCC21` (racemic) came in with a Ki in data set [2] of 9.4 nM. In data set [2], `O=C(O)CCC(=O)N(C1CC1)[C@H]1c2ccccc2N(C(=O)c2cccc(OC(F)(F)F)c2)[C@H]2CC[C@H]21` came in with a Ki of 5 nM. Moreover, the hepatocyte CLint in data set [1] is 15 µL/min/1e6 cells. In data set [4], this molecule gave an IC50 of 43 nM. The AUC(0-t) at 6 h in data set [3] is 0.31 µM·h. Turning to `O=C(O)CCCC(=O)N(C1CC1)C1c2ccccc2N(C(=O)OCc2ccccc2)C2CCCC21` (racemic), in data set [2], the affinity corresponds to a Ki of 1490 nM.

In the case of `O=C(O)c1ccccc1C(=O)N(C1CC1)[C@H]1c2ccccc2N(C(=O)c2ccc(OC(F)(F)F)cc2)[C@H]2CCC[C@H]21`, the affinity in data set [2], expressed as Ki, was 840 nM.

As a reminder, the Ki is a measure of affinity in units of concentration, obtained from inhibition or displacement. Read a high Ki as weaker binding. One may read the AUC(0-t) as the area under the concentration-time curve up to a stated or last time point. A high value points to high exposure. The term IC50 denotes the midpoint of a concentration-inhibition curve.
